Assay results: patent US8802597B2, “Herbicidal pyrimidines” (E I du Pont de Nemours and Company, priority 2003, dated 2014)
Read-outs that look alike come from different tables or passages of the source.

How the values were obtained:
Type in all cases: in vivo
[1] = system: Surinam grass (Brachiaria decumbens); test: Test B pre/postemergence; settings: Urochloa decumbens; for pest or weed control at 125 g/ha: 125 g ai/ha; for pest or weed control at 62 g/ha: 62 g ai/ha
Method in brief: (§1)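 Greenhouse whole-plant test; surfactant-containing non-phytotoxic solvent formulation; pre- and postemergence applications made simultaneously; post plants 2–18 cm, 1- to 4-leaf; visual scoring at 13–15 days on 0–100 scale relative to controls.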

[2] = system: barnyardgrass (Echinochloa crus-galli); test: Test B pre/postemergence; settings: Echinochloa crus-galli, post-emergence, Postemergence, scale 0 to 100 (0 no effect, 100 complete control), read-out: Barnyardgrass plant response rating
Method in brief: as §1

[3] = system: cocklebur (Xanthium strumarium); test: Test B pre/postemergence; settings: Xanthium strumarium; for pest or weed control at 62 g/ha: 62 g ai/ha; for pest or weed control at 125 g/ha: 125 g ai/ha
Method in brief: as §1

corn (Zea mays) = test: Test B pre/postemergence; settings: Zea mays
Method in brief: as §1

[4] = system: crabgrass (Digitaria sanguinalis); test: Test B pre/postemergence; settings: Digitaria sanguinalis; for pest or weed control at 62 g/ha: 62 g ai/ha; for pest or weed control at 125 g/ha: 125 g ai/ha
Method in brief: as §1

[5] = system: giant foxtail (Setaria faberii); test: Test B pre/postemergence; settings: Setaria faberi; for pest or weed control at 125 g/ha: 125 g ai/ha; for pest or weed control at 62 g/ha: 62 g ai/ha
Method in brief: as §1

[6] = system: lambsquarters (Chenopodium album); test: Test B pre/postemergence; settings: Chenopodium album, post-emergence, Postemergence, scale 0 to 100 (0 no effect, 100 complete control), read-out: Lambsquarters plant response rating
Method in brief: as §1

[7] = system: morningglory (Ipomoea coccinea); test: Test B pre/postemergence; settings: Ipomoea; for pest or weed control at 62 g/ha: 62 g ai/ha; for pest or weed control at 125 g/ha: 125 g ai/ha
Method in brief: as §1

[8] = system: pigweed (Amaranthus retroflexus); test: Test B pre/postemergence; settings: Amaranthus retroflexus, post-emergence, Postemergence, scale 0 to 100 (0 no effect, 100 complete control), read-out: Pigweed plant response rating
Method in brief: as §1

[9] = system: velvetleaf (Abutilon theophrasti); test: Test B pre/postemergence; settings: Abutilon theophrasti; for pest or weed control at 62 g/ha: 62 g ai/ha; for pest or weed control at 125 g/ha: 125 g ai/ha
Method in brief: as §1

[10] = system: wheat (Triticum aestivum); test: Test B pre/postemergence; settings: Triticum aestivum, scale 0 to 100 (0 no effect, 100 complete control); for plant injury at 62 g/ha: 62 g ai/ha; for plant injury at 125 g/ha: 125 g ai/ha
Method in brief: as §1

[11] = system: blackgrass (Alopecurus myosuroides); test: Test B postemergence; settings: Alopecurus myosuroides, post-emergence, scale 0 to 100 (0 no effect, 100 complete control), read-out: Blackgrass plant response rating
Method in brief: as §1

wild oat (Avena fatua) = test: Test B postemergence; settings: Avena fatua, post-emergence, scale 0 to 100 (0 no effect, 100 complete control), read-out: Oat, Wild plant response rating
Method in brief: as §1

[12] = system: barnyardgrass (Echinochloa crus-galli); test: Test B flooded paddy test; settings: Echinochloa crus-galli, Flood, scale 0 to 100, read-out: Plant response rating, Barnyardgrass
Method in brief: (§2)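 Plants were grown to the 2-leaf stage before treatment, then kept in a greenhouse for 13 to 15 days. Injury was rated visually against untreated controls on a 0 to 100 scale, where 0 is no effect and 100 is complete control.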

[13] = system: duck salad (Heteranthera limosa); test: Test B flooded paddy test; settings: Heteranthera limosa, Flood, scale 0 to 100, read-out: Plant response rating, Ducksalad
Method in brief: as §2

rice (Oryza sativa) = test: Test B flooded paddy test; settings: Oryza sativa, Flood, scale 0 to 100, read-out: Plant response rating, Rice
Method in brief: as §2

[14] = system: umbrella sedge (Cyperus difformis); test: Test B flooded paddy test; settings: Cyperus difformis, Flood, scale 0 to 100, read-out: Plant response rating, Sedge, Umbrella
Method in brief: as §2

[15] = post-emergence, Postemergence, scale 0 to 100 (0 no effect, 100 complete control), read-out: Surinam Grass plant response rating
[16] = post-emergence, Postemergence, scale 0 to 100 (0 no effect, 100 complete control), read-out: Cocklebur plant response rating
[17] = post-emergence, Postemergence, scale 0 to 100 (0 no effect, 100 complete control), read-out: Crabgrass plant response rating
[18] = post-emergence, Postemergence, scale 0 to 100 (0 no effect, 100 complete control), read-out: Foxtail, Giant plant response rating
[19] = post-emergence, Postemergence, scale 0 to 100 (0 no effect, 100 complete control), read-out: Morningglory plant response rating
[20] = post-emergence, Postemergence, scale 0 to 100 (0 no effect, 100 complete control), read-out: Velvetleaf plant response rating
[21] = post-emergence, Postemergence, read-out: Wheat plant response rating
[22] = pre-emergence, Preemergence, read-out: Plant response rating, Wheat

Structure (SMILES): CCOC(=O)c1nc(-c2ccc(Br)cc2)nc(N)c1Cl [Compound 94, ethyl 6-amino-2-(4-bromophenyl)-5-chloro-4-pyrimidinecarboxylate]
- pest or weed control at 125 g/ha [1, 15]: 80%
- pest or weed control at 62 g/ha [1, 15]: 80%
- pest or weed control at 125 g/ha ([1]; pre-emergence, Preemergence, scale 0 to 100 (0 no effect, 100 complete control), read-out: Plant response rating, Surinam Grass): 30%
- pest or weed control at 62 g/ha ([1]; pre-emergence, Preemergence, scale 0 to 100, 0 no effect, 100 complete control, read-out: Plant response rating, Surinam Grass): 10%
- pest or weed control at 62 g/ha ([2]; 62 g ai/ha): 80%
- pest or weed control at 125 g/ha ([2]; 125 g ai/ha): 90%
- pest or weed control at 62 g/ha [3, 16]: 100%
- pest or weed control at 125 g/ha [3, 16]: 100%
- pest or weed control at 62 g/ha ([3]; pre-emergence, Preemergence, scale 0 to 100, 0 no effect, 100 complete control, read-out: Plant response rating, Cocklebur): 30%
- pest or weed control at 125 g/ha ([3]; pre-emergence, Preemergence, scale 0 to 100 (0 no effect, 100 complete control), read-out: Plant response rating, Cocklebur): 50%
- plant injury at 62 g/ha (corn (Zea mays); post-emergence, Postemergence, 62 g ai/ha, scale 0 to 100 (0 no effect, 100 complete control), read-out: Corn plant response rating): 70%
- plant injury at 125 g/ha (corn (Zea mays); post-emergence, Postemergence, 125 g ai/ha, scale 0 to 100 (0 no effect, 100 complete control), read-out: Corn plant response rating): 90%
- Corn plant response rating (crop injury, 0 = no effect, 100 = complete kill) at 62 g/ha (corn (Zea mays); pre-emergence, Preemergence, 62 g ai/ha, scale 0 to 100, 0 no effect, 100 complete control): 0%
- Corn plant response rating (crop injury, 0 = no effect, 100 = complete kill) at 125 g/ha (corn (Zea mays); pre-emergence, Preemergence, 125 g ai/ha, scale 0 to 100 (0 no effect, 100 complete control)): 0%
- pest or weed control at 62 g/ha [4, 17]: 70%
- pest or weed control at 125 g/ha [4, 17]: 80%
- pest or weed control at 62 g/ha ([4]; pre-emergence, Preemergence, scale 0 to 100, 0 no effect, 100 complete control, read-out: Plant response rating, Crabgrass): 40%
- pest or weed control at 125 g/ha ([4]; pre-emergence, Preemergence, scale 0 to 100 (0 no effect, 100 complete control), read-out: Plant response rating, Crabgrass): 70%
- pest or weed control at 125 g/ha [5, 18]: 60%
- pest or weed control at 62 g/ha [5, 18]: 50%
- pest or weed control at 125 g/ha ([5]; pre-emergence, Preemergence, scale 0 to 100 (0 no effect, 100 complete control), read-out: Plant response rating, Foxtail, Giant): 20%
- pest or weed control at 62 g/ha ([5]; pre-emergence, Preemergence, scale 0 to 100, 0 no effect, 100 complete control, read-out: Plant response rating, Foxtail, Giant): 0%
- pest or weed control at 62 g/ha ([6]; 62 g ai/ha): 90%
- pest or weed control at 125 g/ha ([6]; 125 g ai/ha): 90%
- pest or weed control at 62 g/ha [7, 19]: 80%
- pest or weed control at 125 g/ha [7, 19]: 90%
- pest or weed control at 62 g/ha ([7]; pre-emergence, Preemergence, scale 0 to 100, 0 no effect, 100 complete control, read-out: Plant response rating, Morningglory): 0%
- pest or weed control at 125 g/ha ([7]; pre-emergence, Preemergence, scale 0 to 100 (0 no effect, 100 complete control), read-out: Plant response rating, Morningglory): 0%
- pest or weed control at 62 g/ha ([8]; 62 g ai/ha): 90%
- pest or weed control at 125 g/ha ([8]; 125 g ai/ha): 90%
- pest or weed control at 62 g/ha [9, 20]: 90%
- pest or weed control at 125 g/ha [9, 20]: 100%
- pest or weed control at 62 g/ha ([9]; pre-emergence, Preemergence, scale 0 to 100, 0 no effect, 100 complete control, read-out: Plant response rating, Velvetleaf): 40%
- pest or weed control at 125 g/ha ([9]; pre-emergence, Preemergence, scale 0 to 100 (0 no effect, 100 complete control), read-out: Plant response rating, Velvetleaf): 70%
- plant injury at 62 g/ha [10, 21]: 40%
- plant injury at 125 g/ha [10, 21]: 60%
- plant injury at 62 g/ha [10, 22]: 30%
- plant injury at 125 g/ha [10, 22]: 60%
- pest or weed control at 62 g/ha ([11]; 62 g ai/ha): 40%
- pest or weed control at 125 g/ha ([11]; 125 g ai/ha): 60%
- pest or weed control at 62 g/ha (wild oat (Avena fatua); 62 g ai/ha): 30%
- pest or weed control at 125 g/ha (wild oat (Avena fatua); 125 g ai/ha): 30%
- pest or weed control at 125 g/ha ([12]; 125 g ai/ha): 0%
- pest or weed control at 500 g/ha ([12]; 500 g ai/ha): 0%
- pest or weed control at 125 g/ha ([13]; 125 g ai/ha): 100%
- pest or weed control at 500 g/ha ([13]; 500 g ai/ha): 100%
- plant injury at 125 g/ha (rice (Oryza sativa); 125 g ai/ha): 0%
- plant injury at 500 g/ha (rice (Oryza sativa); 500 g ai/ha): 0%
- pest or weed control at 125 g/ha ([14]; 125 g ai/ha): 90%
- pest or weed control at 500 g/ha ([14]; 500 g ai/ha): 90%
